Measured values: patent publication US9951057B2, “COMT inhibiting methods and compositions” (Lieber Institute for Brain Development, priority 2015, dated 2018)

What was measured:
[1] = target: T1, aromatic amino acid decarboxylase (AAAD) (Homo sapiens, UniProt P20711); settings: given with L-DOPA; Nutt, Woodward et al. 1985; cited from earlier work
T1 sequence (P20711 1-480): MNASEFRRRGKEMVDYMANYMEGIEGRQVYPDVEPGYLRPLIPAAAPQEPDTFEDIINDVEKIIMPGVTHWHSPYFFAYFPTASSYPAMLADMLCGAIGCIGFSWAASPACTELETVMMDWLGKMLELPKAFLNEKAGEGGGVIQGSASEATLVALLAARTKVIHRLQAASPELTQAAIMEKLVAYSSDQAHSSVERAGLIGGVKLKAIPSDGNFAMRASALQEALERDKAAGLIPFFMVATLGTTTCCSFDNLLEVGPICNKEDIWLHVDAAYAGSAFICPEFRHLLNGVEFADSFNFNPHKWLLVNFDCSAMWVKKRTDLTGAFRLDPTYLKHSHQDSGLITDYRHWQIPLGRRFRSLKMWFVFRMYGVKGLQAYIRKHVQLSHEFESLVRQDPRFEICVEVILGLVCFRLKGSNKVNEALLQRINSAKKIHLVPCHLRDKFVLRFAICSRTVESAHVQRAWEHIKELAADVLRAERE

[2] = target: T2, catechol-O-methyltransferase (COMT) (Homo sapiens, UniProt P21964); assay: COMT inhibition assay (HTRF, production of SAH from SAM); assay type: biochemical; settings: recombinant human COMT, table does not say whether MB-COMT or S-COMT
T2 construct: M51A variant) was expressed in HEK 293F cells
T2 sequence (P21964 52-271 limits assumed): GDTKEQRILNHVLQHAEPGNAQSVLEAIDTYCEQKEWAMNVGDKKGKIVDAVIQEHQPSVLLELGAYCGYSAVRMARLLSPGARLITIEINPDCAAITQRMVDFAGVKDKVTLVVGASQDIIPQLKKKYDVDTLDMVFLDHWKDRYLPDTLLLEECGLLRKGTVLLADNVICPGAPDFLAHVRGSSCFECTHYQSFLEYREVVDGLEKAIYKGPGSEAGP
Method: The ability of compounds to inhibit the activity of catechol-O-methyltransferase (COMT) was determined by a homogenous time-resolved fluorescent (HTRF) assay (Lina et al, 2012; kit from CisBio, Codolet, France). This assay measures the production of S-adenosyl homocysteine (SAH) from the methyl donor S-adenosyl methionine. Recombinant human membrane bound COMT (MB-COMT; M51A variant) was expressed in HEK 293F cells using 293Fectin (Life Technologies, Gent, Belgium) and membranes prepared. The membranes were re-suspended in buffer (20 mM Tris/HCl pH 7; 10 mM glycerol; 2 mM MgCl2; 10 mM NaCl), aliquoted and stored at −80° C. Recombinant human soluble COMT (S-COMT), Val158 variant and a hexa-His tag on the N-terminus, was purified using Ni-NTA chromatography, the His tag removed and stored in buffer as above.
For the human MB-COMT assay, membranes (62 ng/well) were incubated with SAM (20 μM final, CisBio) and dopamine (1.5 μM final; Sigma H8502, Diegem, Belgium) in the presence or absence of varying concentrations (typically 10 concentrations ranging from 10 μM to 0.1 nM) of compound for 40 min at 37° C. in 384-well microtitre plates (10 μl per well final volume). The reaction was terminated by the addition of acylation buffer and the amount of SAH produced determined according to manufacturer's instructions. Specific inhibition as that inhibited by a high concentration of tolcapone (10 μM; synthesised at UCB) and all experiments were validated using a control curve to tolcapone.
The human S-COMT assay was performed as above except that 0.15 ng enzyme/well was incubated with SAM (20 μM final) and dopamine (100 μM final) for 15 min at 37° C. and SAH production determined.
HTRF readings were performed using a Perkin Elmer Envision and results expressed as concentration of SAH produced using a standard curve. Results were analysed using non-linear regression to the 4-parameter logistic equation and pIC50 (−log 10 concentration of drug which inhibits enzyme activity/SAH production by 50%) determined.

[3] = Nutt and Fellman 1984; cited from earlier work
[4] = Russ, et al. 1999; cited from earlier work
[5] = clinical use; Olanow and Watkins 2007; cited from earlier work

C[C@@](Cc1ccc(O)c(O)c1)(NN)C(=O)O [Carbidopa]
reduction of the efficacious L-DOPA dose [1]: 60-80%

CC(C)CS(=O)(=O)c1ccc(O)c2ncccc12 [Example 1, 5-isobutylsulfonylquinolin-8-ol]
Activity range (pIC50) [2]: +++ (three plus signs (+++) is associated with a pIC50 of above about 7)

CCCCCCCCS(=O)(=O)c1ccc(O)c2ncccc12 [Example 2, 5-octylsulfonylquinolin-8-ol]
Activity range (pIC50) [2]: +++ (three plus signs (+++) is associated with a pIC50 of above about 7)

O=S(=O)(c1ccc(O)c2ncccc12)C1CCOCC1 [Example 3, 5-tetrahydropyran-4-ylsulfonyquinolin-8-ol]
Activity range (pIC50) [2]: ++ (two plus signs (++) is associated with a pIC50 of from about great than 6 to 7)

C[C@@H]1CCCN1S(=O)(=O)c1ccc(O)c2ncccc12 [Example 5, 5-[(2R)-2-methylpyrrolidin-1-yl]sulfonylquinolin-8-ol]
Activity range (pIC50) [2]: +++ (three plus signs (+++) is associated with a pIC50 of above about 7)

C[C@H]1CCCN1S(=O)(=O)c1ccc(O)c2ncccc12 [Example 6]
Activity range (pIC50) [2]: +++ (three plus signs (+++) is associated with a pIC50 of above about 7)

O=S(=O)(c1cc(Cl)c(O)c2ncccc12)N1CCCC1 [Example 7, 7-chloro-5-pyrrolidin-1-ylsulfonyl-quinolin-8-ol]
Activity range (pIC50) [2]: ++ (two plus signs (++) is associated with a pIC50 of from about great than 6 to 7)

O=S(=O)(c1cc(Cl)c(O)c2ncccc12)C1CCCC1 [Example 8, 7-chloro-5-cyclopentylsulfonyl-quinolin-8-ol]
Activity range (pIC50) [2]: ++ (two plus signs (++) is associated with a pIC50 of from about great than 6 to 7)

O=S(=O)(c1ccc(F)cc1)c1cc(Cl)c(O)c2ncccc12 [Example 9, 7-chloro-5-(4-fluorophenyl)sulfonyl-quinolin-8-ol]
Activity range (pIC50) [2]: ++ (two plus signs (++) is associated with a pIC50 of from about great than 6 to 7)

O=S(=O)(c1cc(F)c(O)c2ncccc12)C1CCCC1 [Example 10, 7-fluoro-5-cyclopentylsulfonyl-quinolin-8-ol]
Activity range (pIC50) [2]: +++ (three plus signs (+++) is associated with a pIC50 of above about 7)

CC(C)CS(=O)(=O)c1cc(Cl)c(O)c2ncccc12 [Example 11, 7-chloro-5-isobutylsulfonyl-quinolin-8-ol]
Activity range (pIC50) [2]: + (a single plus (+) is associated with a pIC50 of from about 4.5 to 6)

CC(C)S(=O)(=O)c1cc(Cl)c(O)c2ncccc12 [Example 12, 7-chloro-5-isopropylsulfonyl-quinolin-8-ol]
Activity range (pIC50) [2]: ++ (two plus signs (++) is associated with a pIC50 of from about great than 6 to 7)

O=S(=O)(c1cc(Cl)c(O)c2ncccc12)C1CCCCC1 [Example 13, 7-chloro-5-cyclohexylsulfonyl-quinolin-8-ol]
Activity range (pIC50) [2]: +++ (three plus signs (+++) is associated with a pIC50 of above about 7)

O=S(=O)(c1ccc(F)cc1)c1cc(F)c(O)c2ncccc12 [Example 14, 7-fluoro-5-(4-fluorophenyl)sulfonyl-quinolin-8-ol]
Activity range (pIC50) [2]: ++ (two plus signs (++) is associated with a pIC50 of from about great than 6 to 7)

O=S(=O)(c1ccc(C(F)(F)F)cc1)c1cc(F)c(O)c2ncccc12 [Example 15, 7-fluoro-5-[4-(trifluoromethyl)phenyl]sulfonyl-quinolin-8-ol]
Activity range (pIC50) [2]: ++ (two plus signs (++) is associated with a pIC50 of from about great than 6 to 7)

O=S(=O)(c1ccccn1)c1cc(F)c(O)c2ncccc12 [Example 16, 7-fluoro-5-(2-pyridylsulfonyl)quinolin-8-ol]
Activity range (pIC50) [2]: ++ (two plus signs (++) is associated with a pIC50 of from about great than 6 to 7)

Cc1ccc(S(=O)(=O)c2cc(Cl)c(O)c3ncccc23)cc1C [Example 17, 7-chloro-5-(3,4-dimethylphenyl)sulfonyl-quinolin-8-ol]
Activity range (pIC50) [2]: ++ (two plus signs (++) is associated with a pIC50 of from about great than 6 to 7)

O=S(=O)(c1ccc(C(F)(F)F)cc1)c1cc(Cl)c(O)c2ncccc12 [Example 18, 7-chloro-5-[4-(trifluoromethyl)phenyl]sulfonyl-quinolin-8-ol]
Activity range (pIC50) [2]: ++ (two plus signs (++) is associated with a pIC50 of from about great than 6 to 7)

O=S(=O)(c1ccccn1)c1cc(Cl)c(O)c2ncccc12 [Example 19, 7-chloro-5-(2-pyridylsulfonyl)quinolin-8-ol]
Activity range (pIC50) [2]: ++ (two plus signs (++) is associated with a pIC50 of from about great than 6 to 7)

Cc1ccc(S(=O)(=O)c2cc(Cl)c(O)c3ncccc23)c(C)c1 [Example 20, 7-chloro-5-(2,4-dimethylphenyl)sulfonyl-quinolin-8-ol]
Activity range (pIC50) [2]: +++ (three plus signs (+++) is associated with a pIC50 of above about 7)

O=S(=O)(c1cc(Cl)cc(Cl)c1)c1cc(Cl)c(O)c2ncccc12 [Example 21, 7-chloro-5-(3,5-dichlorophenyl)sulfonyl-quinolin-8-ol]
Activity range (pIC50) [2]: + (a single plus (+) is associated with a pIC50 of from about 4.5 to 6)

O=S(=O)(c1nccs1)c1cc(Cl)c(O)c2ncccc12 [Example 22, 7-chloro-5-thiazol-2-ylsulfonyl-quinolin-8-ol]
Activity range (pIC50) [2]: ++ (two plus signs (++) is associated with a pIC50 of from about great than 6 to 7)

Cc1cccc(S(=O)(=O)c2cc(Cl)c(O)c3ncccc23)c1 [Example 23, 7-chloro-5-(m-tolylsulfonyl)quinolin-8-ol]
Activity range (pIC50) [2]: ++ (two plus signs (++) is associated with a pIC50 of from about great than 6 to 7)

O=S(=O)(c1ccc(Cl)c(Cl)c1)c1cc(Cl)c(O)c2ncccc12 [Example 24, 7-chloro-5-(3,4-dichlorophenyl)sulfonyl-quinolin-8-ol]
Activity range (pIC50) [2]: ++ (two plus signs (++) is associated with a pIC50 of from about great than 6 to 7)

O=S(=O)(c1cccc(-c2ccccc2)c1)c1cc(Cl)c(O)c2ncccc12 [Example 25, 7-chloro-5-(3-phenylphenyl)sulfonyl-quinolin-8-ol]
Activity range (pIC50) [2]: ++ (two plus signs (++) is associated with a pIC50 of from about great than 6 to 7)

CC(C)(C)c1ccc(S(=O)(=O)c2cc(Cl)c(O)c3ncccc23)cc1 [Example 26, 5-(4-tert-butylphenyl)sulfonyl-7-chloro-quinolin-8-ol]
Activity range (pIC50) [2]: + (a single plus (+) is associated with a pIC50 of from about 4.5 to 6)

O=S(=O)(c1cccnc1)c1cc(Cl)c(O)c2ncccc12 [Example 27, 7-chloro-5-(3-pyridylsulfonyl)quinolin-8-ol]
Activity range (pIC50) [2]: + (a single plus (+) is associated with a pIC50 of from about 4.5 to 6)

O=S(=O)(c1ccc[n+]([O-])c1)c1cc(Cl)c(O)c2ncccc12 [Example 28, 7-chloro-5-(1-oxidopyridin-1-ium-3-yl)sulfonyl-quinolin-8-ol]
Activity range (pIC50) [2]: + (a single plus (+) is associated with a pIC50 of from about 4.5 to 6)

N[C@@H](Cc1ccc(O)c(O)c1)C(=O)O [L-DOPA, L-dihydroxyphenylalanine]
percentage of exogenously administered L-DOPA that reaches the brain [3]: ~1%

CCN(CC)C(=O)/C(C#N)=C/c1cc(O)c(O)c([N+](=O)[O-])c1 [entacapone]
brain penetration / levels in the brain [4]: negligible brain penetration

Cc1ccc(C(=O)c2cc(O)c(O)c([N+](=O)[O-])c2)cc1 [tolcapone]
brain penetration / levels in the brain [4]: low but measurable levels in the brain
liver injury [5]: associated with serious liver injury, including three deaths
